The results in this text go back to patent publication US20180326014A1, “PHARMACEUTICAL FORMULATIONS FOR THE TREATMENT OF DIABETES” (KALEYDE PHARMACEUTICALS AG, priority 2016, published 2018).

For data set [1], the system named is DP BB rats (Diabetes-Prone BioBreeding rats). The data set is described as follows: CD31 immunohistochemistry and quantitative analysis of neovascular tuft formations in retinas of DP BB rats. The settings on record: daily s.c., peptide groups E, F, insulin alone group C, peptide+insulin group D. It counts as in vivo, rat. As for the experimental part: The state of vascularization of the retina of the treated animals was studied on the whole retinas, using antibodies directed against CD31 (BD Biosciences, San Diego, Calif., USA), an important marker for the endothelial cells. The immunohistochemical tests on the retinas and quantitative analysis of the neovascular tuft formations, vascular and avascular areas, were conducted as reported in the literature (Exp Eye Res. 2013; 111:27-35; Invest Ophthalmol Vis Sci. 2012; 53:2181-2192; J Neurochem. 2011; 119:1317-1329; Invest Ophthalmol Vis Sci. 2006; 47:2125-2134). […]
The retinal vascularization images were acquired with an epifluorescence microscope (Eclipse E800; Nikon Corp., Amsterdam, Netherlands) using a digital camera converter (SD-Filc camera; Nikon Corp.). The electronic images were processed with image-processing software (Adobe Photoshop; Adobe Systems, Inc., Mountain View, Calif., USA) to allow quantitative analysis of the results. For each experimental condition, the quantitative data originated from 20 retinas of 10 different rats.
Table 3—Immunohistochemical tests on retinas and quantitative analysis of neovascular tuft formations. […] The electronic images were processed with image-processing software (Adobe Photoshop; Adobe Systems, Inc., Mountain View, Calif., USA) to allow quantitative analysis of the results. […]

The subject of data set [2] is SD-STZ rats (Sprague-Dawley rats rendered diabetic with streptozotocin). The data set is described as follows: Retinal function by ERG (SOPs) in rats rendered diabetic with streptozotocin. The note with it: daily administration, peptide groups C and E, insulin alone printed as groups B and D.
Procedure: (§1) The severity of the diabetic state was evaluated by daily monitoring of body weight, clinical signs and blood glucose levels.
(§2) The dose of STZ was prepared at the time of use by dissolving the compound in 0.05M citrate buffer, pH 4.5. For the STZ administration, the animals were placed in the dorsal position and the injection site was disinfected and buffered with an iodine-povidone solution; the i.p. injection was performed in the caudal abdominal cavity of the rats, using a sterile 25 g needle. The severity of the diabetes caused by administration of STZ was monitored daily, evaluating blood glucose levels with the One-Touch profile (LifeScan, Milpitas, Calif.), every day; urine glucose with Clinistix (Bayer Diagnostica, Basingstoke, United Kingdom), twice a week; insulin levels, twice a week, with an RIA Kit (BioRad, Milan, Italy).
(§3) 5) subcutaneously twice a day. The retinal functionality of the animals in each group was evaluated by ERG before euthanasia and removal of the retinas for quantitative histochemical analysis.
(§4) Retinal function was evaluated by ERG, as reported in detail in example 2.
(§5) The study design involved 5 groups of 10 rats, 5 male and 5 female. […]
Data set [3] has as its system DP BB rats (Diabetes-Prone BioBreeding rats). The data set is described as follows: Retinal function by scotopic full-field ERG (SOPs) in diabetes-prone BioBreeding rats. The note with it: daily s.c., peptide groups E, F, insulin alone group C, peptide+insulin group D.
Procedure: (§6) The efficacy of formulation 3, described in example 1, in the treatment of the retinal vascular alterations associated with diabetes, was evaluated using as experimental model DP BB rats (Diabetes-Prone BioBreeding rats, M&B Bomholtvej, Denmark), analyzing the retinal function of the treated animals by electroretinography (ERG) and the state of vascularization of the retina by quantitative immunohistochemical techniques.
(§7) 60 3-week old DP BB rats of both sexes (30 male and 30 female) were used. […] The animals were observed from the 3rd to 30th weeks of life, monitoring various parameters, including weight, blood glucose, urine glucose and blood insulin. In particular, the onset of diabetes was evaluated by measuring blood glucose with the One-Touch profile (LifeScan, Milpitas, Calif.) twice a week, and every day from the 13th week; urine glucose with Clinistix (Bayer Diagnostica, Basingstoke, United Kingdom), twice a week; insulin levels twice a week, with an RIA Kit (BioRad, Milan, Italy). […]
(§8) The retinal functionality of the animals in each group was evaluated by ERG before euthanasia and removal of the retinas for quantitative histochemical analysis.
(§9) Retinal functionality was evaluated by ERG, using a scotopic full-field ERG. […] The wave amplitude was measured at a fixed time of 8 ms from the stimulus, to minimise non-photoreceptor contamination. […]
In data set [4] the test system is SD-STZ rats (Sprague-Dawley rats rendered diabetic with streptozotocin). The data set is described as follows: Immunohistochemistry and quantitative analysis of neovascular tuft formations in retinas of SD-STZ rats. The note with it: daily administration, peptide groups C and E, insulin alone group D. Format: in vivo, rat. From the text:
5) subcutaneously twice a day.
For each experimental condition, the quantitative data originated from 20 retinas of 10 different rats.
Table 5—Immunohistochemical tests on retinas and quantitative analysis of neovascular tuft formations. The state of vascularization of the retina of the treated animals was studied as reported in example 2. For each experimental condition, the quantitative data originated from 20 retinas of 10 different rats. […] The areas of neovascularization are expressed as the ratio between the area of neovascularization present in the animals which are not yet diabetic (Group A≈0.1% of the retinal area) and that of the group. […] 5) subcutaneously twice a day.

Data set [5] deals with DP BB rats (Diabetes-Prone BioBreeding rats). The note with it: rat, in vivo, sc.
Procedure: as §6, §7, §8, §9
The test system of data set [6] is SD-STZ rats (Sprague-Dawley rats rendered diabetic with streptozotocin). The note with it: rat, in vivo.
Procedure: as §1, §2, §3, §4, §5

Where two headings read alike, the source gives them in different places. Where a SMILES comes first, the peptide text is derived from it. [ ]: non-standard residue; d: D form. ξ: configuration not given here. ξαMeF = CC(N)(Cc1ccccc1)C(=O)O; Aib = CC(C)(N)C(=O)O

Regarding insulin, in data set [1], the “effect on retinal vascular damage / NTA, in words (Table 3)” value was “causes a major increase in NTA”. In addition, the “effect on retinal vascular damage, in words (Table 4)” value in data set [2] was “gives rise to major retinal vascular damage”. The “effect on retinal vascular damage / eyesight, in words (Table 2)” value in data set [3] is on record as “causes major retinal vascular damage”. Moreover, in data set [4], the “effect on retinal vascular damage / NTA, in words (Table 5)” value was “leads to a major increase in NTA”.
In the case of `CC(=O)N[C@@H](CCCNC(=N)N)C(=O)NC(C)(C)C(=O)N[C@@H](CCCNC(=N)N)C(=O)NC(C)(Cc1ccccc1)C(N)=O` (stereo partly drawn) [Ac-Arg-Aib-Arg-α(Me)Phe-NH2] (Ac-R[Aib]R[ξαMeF]-NH2), the “effect on retinal vascular damage / eyesight, in words (Table 2)” value in data set [5] is listed as “prevent the formation of retinal vascular damage”.
`CC(=O)NC(C)(C)C(=O)N[C@@H](CCCNC(=N)N)C(=O)NC(C)(C)C(=O)N[C@@H](CCCNC(=N)N)C(=O)NC(C)(Cc1ccccc1)C(N)=O` (stereo partly drawn) [Ac-Aib-Arg-Aib-Arg-α(Me)Phe-NH2] (Ac-[Aib]R[Aib]R[ξαMeF]-NH2): the “effect on retinal vascular damage, in words (Table 4)” value in data set [6] is given as “prevent ab initio the formation of retinal vascular damage”.
